Laboratory results from article PMC10910009, “Comparing ATPase activity of ATP-binding cassette subfamily C member 4, lamprey CFTR, and human CFTR using an antimony-phosphomolybdate assay” (Frontiers in Pharmacology, 2024).

B1: hABCC4 (Homo sapiens) (protein)
chain: MLPVYQEVKPNPLQDANLCSRVFFWWLNPLFKIGHKRRLEEDDMYSVLPEDRSQHLGEELQGFWDKEVLRAENDAQKPSLTRAIIKCYWKSYLVLGIFTLIEESAKVIQPIFLGKIINYFENYDPMDSVALNTAYAYATVLTFCTLILAILHHLYFYHVQCAGMRLRVAMCHMIYRKALRLSNMAMGKTTTGQIVNLLSNDVNKFDQVTVFLHFLWAGPLQAIAVTALLWMEIGISCLAGMAVLIILLPLQSCFGKLFSSLRSKTATFTDARIRTMNEVITGIRIIKMYAWEKSFSNLITNLRKKEISKILRSSCLRGMNLASFFSASKIIVFVTFTTYVLLGSVITASRVFVAVTLYGAVRLTVTLFFPSAIERVSEAIVSIRRIQTFLLLDEISQRNRQLPSDGKKMVHVQDFTAFWDKASETPTLQGLSFTVRPGELLAVVGPVGAGKSSLLSAVLGELAPSHGLVSVHGRIAYVSQQPWVFSGTLRSNILFGKKYEKERYEKVIKACALKKDLQLLEDGDLTVIGDRGTTLSGGQKARVNLARAVYQDADIYLLDDPLSAVDAEVSRHLFELCICQILHEKITILVTHQLQYLKAASQILILKDGKMVQKGTYTEFLKSGIDFGSLLKKDNEESEQPPVPGTPTLRNRTFSESSVWSQQSSRPSLKDGALESQDTENVPVTLSEENRSEGKVGFQAYKNYFRAGAHWIVFIFLILLNTAAQVAYVLQDWWLSYWANKQSMLNVTVNGGGNVTEKLDLNWYLGIYSGLTVATVLFGIARSLLVFYVLVNSSQTLHNKMFESILKAPVLFFDRNPIGRILNRFSKDIGHLDDLLPLTFLDFIQTLLQVVGVVSVAVAVIPWIAIPLVPLGIIFIFLRRYFLETSRDVKRLESTTRSPVFSHLSSSLQGLWTIRAYKAEERCQELFDAHQDLHSEAWFLFLTTSRWFAVRLDAICAMFVIIVAFGSLILAKTLDAGQVGLALSYALTLMGMFQWCVRQSAEVENMMISVERVIEYTDLEKEAPWEYQKRPPPAWPHEGVIIFDNVNFMYSPGGPLVLKHLTALIKSQEKVGIVGRTGAGKSSLISALFRLSEPEGKIWIDKILTTEIGLHDLRKKMSIIPQEPVLFTGTMRKNLDPFNEHTDEELWNALQEVQLKETIEDLPGKMDTELAESGSNFSVGQRQLVCLARAILRKNQILIIDEATANVDPRTDELIQKKIREKFAHCTVLTIAHRLNTIIDSDKIMVLDSGRLKEYDEPYVLLQNKESLFYKMVQQLGKAEAAALTETAKQVYFKRNYPHIGHTDHMVTNTSNGQPSTLTIFETAL
notes: human ABCC4 in pFastBac vector with 6xHis tag; baculovirus/Sf9 crude plasma membranes, not purified

Experiments:
Lp-CFTR = target: T1, Lp-CFTR (Petromyzon marinus, UniProt A0A5Q0TXR8); test: antimony-phosphomolybdate Pi release (ATPase); assay type: biochemical; conditions: Sf9 crude membranes, control membranes subtracted; 1 mM Na2ATP, 5 mM MgCl2, PKA, pH 7.4, 30 °C, 1 h
T1 construct: lamprey CFTR in pFastBac vector with 6xHis tag; baculovirus/Sf9 crude plasma membranes, not purified; PKA-phosphorylated
T1 sequence (A0A5Q0TXR8 1-1466): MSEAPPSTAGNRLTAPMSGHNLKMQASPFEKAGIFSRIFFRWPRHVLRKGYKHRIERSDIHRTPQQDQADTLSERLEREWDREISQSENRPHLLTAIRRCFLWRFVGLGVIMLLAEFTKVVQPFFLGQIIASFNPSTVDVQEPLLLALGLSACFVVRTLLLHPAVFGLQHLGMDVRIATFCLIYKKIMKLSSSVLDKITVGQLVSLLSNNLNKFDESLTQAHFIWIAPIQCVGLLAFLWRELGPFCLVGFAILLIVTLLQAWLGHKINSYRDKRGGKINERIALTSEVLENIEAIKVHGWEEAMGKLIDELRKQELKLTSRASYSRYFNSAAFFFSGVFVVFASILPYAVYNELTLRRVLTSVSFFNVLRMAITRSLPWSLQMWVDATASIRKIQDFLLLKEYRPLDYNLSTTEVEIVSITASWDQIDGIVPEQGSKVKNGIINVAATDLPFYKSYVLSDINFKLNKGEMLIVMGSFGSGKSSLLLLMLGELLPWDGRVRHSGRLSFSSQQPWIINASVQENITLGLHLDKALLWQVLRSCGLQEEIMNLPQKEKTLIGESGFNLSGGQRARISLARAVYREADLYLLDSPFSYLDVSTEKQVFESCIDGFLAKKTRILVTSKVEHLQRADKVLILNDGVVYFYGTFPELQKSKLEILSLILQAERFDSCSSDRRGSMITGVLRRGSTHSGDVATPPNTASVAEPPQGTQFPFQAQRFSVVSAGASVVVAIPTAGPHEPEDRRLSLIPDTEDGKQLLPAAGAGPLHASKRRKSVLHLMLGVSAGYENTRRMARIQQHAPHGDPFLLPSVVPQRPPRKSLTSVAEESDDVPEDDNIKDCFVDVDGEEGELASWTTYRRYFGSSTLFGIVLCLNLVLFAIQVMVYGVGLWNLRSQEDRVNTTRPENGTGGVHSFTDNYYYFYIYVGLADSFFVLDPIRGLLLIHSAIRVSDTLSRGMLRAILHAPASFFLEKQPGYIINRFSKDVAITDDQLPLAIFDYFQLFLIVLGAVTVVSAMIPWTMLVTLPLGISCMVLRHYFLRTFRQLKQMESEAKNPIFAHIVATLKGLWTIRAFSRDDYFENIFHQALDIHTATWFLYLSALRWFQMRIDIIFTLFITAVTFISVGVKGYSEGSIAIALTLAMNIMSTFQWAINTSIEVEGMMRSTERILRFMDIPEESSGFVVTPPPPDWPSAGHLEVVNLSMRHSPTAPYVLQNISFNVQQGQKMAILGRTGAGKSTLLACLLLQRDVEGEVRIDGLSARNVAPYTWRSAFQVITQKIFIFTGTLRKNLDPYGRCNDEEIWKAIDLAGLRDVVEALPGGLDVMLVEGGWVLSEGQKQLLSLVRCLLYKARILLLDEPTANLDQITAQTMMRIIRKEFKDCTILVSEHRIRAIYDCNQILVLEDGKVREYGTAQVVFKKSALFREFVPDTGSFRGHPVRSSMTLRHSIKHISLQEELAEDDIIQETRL

hCFTR = target: T2, hCFTR (Homo sapiens, UniProt P13569); conditions: Sf9 crude membranes, control membranes subtracted; 1 mM Na2ATP, 5 mM MgCl2, PKA, pH 7.4, 30 °C, 1 h
T2 construct: gene CFTR

[1] = substrate: Nc1ncnc2c1ncn2[C@@H]1O[C@H](COP(=O)(O)OP(=O)(O)OP(=O)(O)O)[C@@H](O)[C@H]1O; test: antimony-phosphomolybdate Pi release (ATPase), Michaelis-Menten fit; assay type: biochemical, Homo sapiens; conditions: printed as Kd but from Michaelis-Menten fit of ATPase activity, Sf9 crude membranes, control membranes subtracted, 5 mM MgCl2, pH 7.4, 37 °C, 20 min, no PKA, no transport substrate

T2 sequence (P13569 whole entry): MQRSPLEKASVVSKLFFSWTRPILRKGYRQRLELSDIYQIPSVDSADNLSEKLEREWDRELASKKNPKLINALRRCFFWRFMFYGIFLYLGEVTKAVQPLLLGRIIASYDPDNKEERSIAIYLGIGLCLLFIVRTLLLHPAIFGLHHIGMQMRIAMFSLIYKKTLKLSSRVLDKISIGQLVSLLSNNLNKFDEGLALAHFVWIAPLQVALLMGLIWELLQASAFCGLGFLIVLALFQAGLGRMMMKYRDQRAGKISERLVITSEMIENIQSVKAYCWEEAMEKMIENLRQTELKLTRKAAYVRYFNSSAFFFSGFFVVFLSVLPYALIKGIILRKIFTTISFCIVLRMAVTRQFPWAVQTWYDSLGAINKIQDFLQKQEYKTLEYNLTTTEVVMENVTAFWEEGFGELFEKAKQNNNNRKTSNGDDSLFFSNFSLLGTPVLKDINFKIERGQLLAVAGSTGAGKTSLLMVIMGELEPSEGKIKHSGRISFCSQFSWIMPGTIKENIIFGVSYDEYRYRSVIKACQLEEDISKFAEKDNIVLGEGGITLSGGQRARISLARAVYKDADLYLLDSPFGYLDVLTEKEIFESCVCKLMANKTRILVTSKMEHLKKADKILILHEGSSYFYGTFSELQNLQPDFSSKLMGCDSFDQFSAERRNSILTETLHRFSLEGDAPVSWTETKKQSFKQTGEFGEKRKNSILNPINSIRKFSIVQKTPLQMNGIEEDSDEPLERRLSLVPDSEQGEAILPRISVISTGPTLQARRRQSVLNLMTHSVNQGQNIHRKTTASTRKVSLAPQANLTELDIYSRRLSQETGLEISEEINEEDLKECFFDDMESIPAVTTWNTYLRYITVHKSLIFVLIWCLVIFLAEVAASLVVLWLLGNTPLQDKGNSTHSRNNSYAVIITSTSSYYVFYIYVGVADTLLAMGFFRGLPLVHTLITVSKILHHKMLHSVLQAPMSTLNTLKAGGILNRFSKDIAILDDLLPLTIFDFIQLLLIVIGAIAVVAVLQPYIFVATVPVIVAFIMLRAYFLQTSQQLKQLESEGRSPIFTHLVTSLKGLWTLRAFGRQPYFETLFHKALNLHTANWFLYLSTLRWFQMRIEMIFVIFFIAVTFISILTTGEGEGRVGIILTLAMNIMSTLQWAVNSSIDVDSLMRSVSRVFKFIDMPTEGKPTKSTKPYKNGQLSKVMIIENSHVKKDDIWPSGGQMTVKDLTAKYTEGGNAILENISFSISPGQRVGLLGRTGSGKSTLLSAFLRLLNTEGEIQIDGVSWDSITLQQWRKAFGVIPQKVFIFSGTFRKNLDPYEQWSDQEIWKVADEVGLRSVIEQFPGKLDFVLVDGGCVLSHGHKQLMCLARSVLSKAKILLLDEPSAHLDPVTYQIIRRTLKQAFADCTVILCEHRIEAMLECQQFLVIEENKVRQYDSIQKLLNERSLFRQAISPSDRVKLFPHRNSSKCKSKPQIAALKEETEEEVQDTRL

Molecule	antimony-phosphomolybdate Pi release (ATPase) (Lp-CFTR)	antimony-phosphomolybdate Pi release (ATPase) (hCFTR)	Km [1] [mM]
Nc1ncnc2c1ncn2[C@@H]1O[C@H](COP(=O)(O)OP(=O)(O)OP(=O)(O)O)[C@@H](O)[C@H]1O [ATP]	Lp-CFTR exhibited higher ATPase activity in high PKA compared to low PKA conditions	hCFTR exhibited higher ATPase activity in high PKA compared to low PKA conditions	
B1			0.55 ± 0.28
